Assay results: ChEMBL document CHEMBL4680245, “Design, synthesis and biological evaluation of tetrahydroquinoline-based reversible LSD1 inhibitors” (Eur J Med Chem, 2020)
pIC50: −log10 of the molar value.

target: Lysine-specific histone demethylase 1A (Homo sapiens, UniProt O60341)
Description: Inhibition of human recombinant LSD1 using fluorogenic ADHP based substrate preincubated for 30 mins followed by substrate addition measured after 10 mins by horseradish peroxidase coupled fluorescence assay

| Structure (SMILES) | pIC50 |
| --- | --- |
| Cc1ccc2c(c1)cc(C(=O)Nc1cccc3c1N(Cc1ccc(OC4CCNCC4)cc1)CCC3)n2C | < 7.30 |
| Cn1c(C(=O)Nc2cccc3c2N(Cc2ccc(OCc4cccc(C#N)c4)cc2)CCC3)cc2sccc21 | < 4.30 |
| O=C(Nc1cccc2c1N(Cc1ccc(OC3CCNCC3)cc1)CCC2)c1ccc(C(F)(F)F)cc1F | 8.29 |
| CNc1cccc(COc2ccc(CN3CCCc4cccc(NC(=O)c5cc6sccc6n5C)c43)cc2)c1 | < 4.30 |
| CCCn1c(C(=O)Nc2cccc3c2N(Cc2ccc(OC4CCNCC4)cc2)CCC3)cc2ccccc21 | 8.82 |
| Cn1ccc2cccc(C(=O)Nc3cccc4c3N(Cc3ccc(OC5CCNCC5)cc3)CCC4)c21 | 8.35 |
| CC(C)n1c(C(=O)Nc2cccc3c2N(Cc2ccc(OC4CCNCC4)cc2)CCC3)cc2ccccc21 | 9.74 |
| Cn1c(C(=O)Nc2cccc3c2N(Cc2ccc(OC[C@H]4CCNC4)cc2)CCC3)cc2sccc21 | 6.83 |
| O=C(Nc1cccc2c1N(Cc1ccc(OC3CCNCC3)cc1)CCC2)c1ccc2ccccc2n1 | 7.88 |
| O=C(Nc1cccc2c1N(Cc1ccc(OC3CCNCC3)cc1)CCC2)c1cc2ccccc2n1CC1CC1 | 8.58 |
| CN1CCC(Oc2ccc(CN3CCCc4cccc(NC(=O)c5cc6sccc6n5C)c43)cc2)CC1 | 7.42 |
| CN(C)CCCOc1ccc(CN2CCCc3cccc(NC(=O)c4cc5sccc5n4C)c32)cc1 | 7.51 |
| Cn1c(C(=O)Nc2cccc3c2N(Cc2ccc(OCc4ccc(N)cc4)cc2)CCC3)cc2sccc21 | < 4.30 |
| O=C(Nc1cccc2c1N(Cc1ccc(OC3CCNCC3)cc1)CCC2)c1ccc2[nH]ccc2c1 | 8.34 |
| O=C(Nc1cccc2c1N(Cc1ccc(OC3CCNCC3)cc1)CCC2)c1cc2ccccc2n1CC(F)F | 9.11 |
| Cn1c(C(=O)Nc2cccc3c2N(Cc2ccc(OCCCN)cc2)CCC3)cc2sccc21 | 7.32 |
| O=C(Nc1cccc2c1N(Cc1ccc(OC3CCNCC3)cc1)CCC2)c1cccc2[nH]ccc12 | 9.27 |

Continued, values first:

| pIC50 | Structure (SMILES) |
| --- | --- |
| < 7.30 | COc1ccc2c(c1)cc(C(=O)Nc1cccc3c1N(Cc1ccc(OC4CCNCC4)cc1)CCC3)n2C |
| 9.03 | O=C(Nc1cccc2c1N(Cc1ccc(OC3CCNCC3)cc1)CCC2)c1cc2ccccc2s1 |
| 7.44 | Cn1c(C(=O)Nc2cccc3c2N(Cc2ccc(O[C@H]4CC[C@H](N)CC4)cc2)CCC3)cc2sccc21 |
| 8.64 | O=C(Nc1cccc2c1N(Cc1ccc(OC3CCNCC3)cc1)CCC2)c1nc2ccccc2[nH]1 |
| 6.14 | Cn1c(C(=O)Nc2cccc3c2N(Cc2ccc(OCC4CCOCC4)cc2)CCC3)cc2sccc21 |
| 7.59 | Cn1ccc2cc(C(=O)Nc3cccc4c3N(Cc3ccc(OC5CCNCC5)cc3)CCC4)ccc21 |
| 7.44 | Cn1c(C(=O)Nc2cccc3c2N(Cc2ccc(O[C@H]4CC[C@H](N(C)C)CC4)cc2)CCC3)cc2sccc21 |
| 8.34 | Cn1cc(C(=O)Nc2cccc3c2N(Cc2ccc(OC4CCNCC4)cc2)CCC3)c2ccccc21 |
| 9.82 | O=C(Nc1cccc2c1N(Cc1ccc(OC3CCNCC3)cc1)CCC2)c1cc2ccccc2n1CCCl |
| 7.79 | Cn1c(C(=O)Nc2cccc3c2N(Cc2ccc(OC4CCNCC4)cc2)CCC3)cc2cc(Cl)ccc21 |
| < 4.30 | CN(C)c1cccc(COc2ccc(CN3CCCc4cccc(NC(=O)c5cc6sccc6n5C)c43)cc2)c1 |
| < 4.30 | Cn1c(C(=O)Nc2cccc3c2N(Cc2ccc(OCc4ccc([N+](=O)[O-])cc4)cc2)CCC3)cc2sccc21 |
| 9.04 | O=C(Nc1cccc2c1N(Cc1ccc(OC3CCNCC3)cc1)CCC2)c1nc2ccccc2s1 |
| 7.73 | O=C(Nc1cccc2c1N(Cc1ccc(OC3CCNCC3)cc1)CCC2)c1cnc2ccccc2c1 |
| 8.74 | O=C(Nc1cccc2c1N(Cc1ccc(OC3CCNCC3)cc1)CCC2)c1ccc(C(F)(F)F)cc1 |
| < 4.30 | Cn1c(C(=O)Nc2cccc3c2N(Cc2ccc(OCc4ccc(C(N)=O)cc4)cc2)CCC3)cc2sccc21 |
| 8.41 | Cn1ccc2c(C(=O)Nc3cccc4c3N(Cc3ccc(OC5CCNCC5)cc3)CCC4)cccc21 |
| < 4.30 | Cn1c(C(=O)Nc2cccc3c2N(Cc2ccc(OCc4cccc([N+](=O)[O-])c4)cc2)CCC3)cc2sccc21 |
